Reference: ChEMBL document CHEMBL3352342, “Nucleotide-binding oligomerization domain (NOD) inhibitors: a rational approach toward inhibition of NOD signaling pathway” (J Med Chem, 2014)

Assays:
[1] = biological target: Nucleotide-binding oligomerization domain-containing protein 2 (Homo sapiens, UniProt Q9HC29); experiment: Inhibition of NOD2 (unknown origin) expressed in HEK293T cells coexpressing NF-kappaB driven luciferase reporter gene by HTS primary assay; type: cell-based, HEK-293T
[2] = biological target: T1, Nucleotide-binding oligomerization domain-containing protein 1 (Homo sapiens, UniProt Q9Y239); experiment: Inhibition of NOD1 (unknown origin) expressed in HEK293T cells coexpressing NF-kappaB driven luciferase reporter gene by HTS primary assay; type: cell-based, HEK-293T
T1 sequence (Q9Y239 whole entry): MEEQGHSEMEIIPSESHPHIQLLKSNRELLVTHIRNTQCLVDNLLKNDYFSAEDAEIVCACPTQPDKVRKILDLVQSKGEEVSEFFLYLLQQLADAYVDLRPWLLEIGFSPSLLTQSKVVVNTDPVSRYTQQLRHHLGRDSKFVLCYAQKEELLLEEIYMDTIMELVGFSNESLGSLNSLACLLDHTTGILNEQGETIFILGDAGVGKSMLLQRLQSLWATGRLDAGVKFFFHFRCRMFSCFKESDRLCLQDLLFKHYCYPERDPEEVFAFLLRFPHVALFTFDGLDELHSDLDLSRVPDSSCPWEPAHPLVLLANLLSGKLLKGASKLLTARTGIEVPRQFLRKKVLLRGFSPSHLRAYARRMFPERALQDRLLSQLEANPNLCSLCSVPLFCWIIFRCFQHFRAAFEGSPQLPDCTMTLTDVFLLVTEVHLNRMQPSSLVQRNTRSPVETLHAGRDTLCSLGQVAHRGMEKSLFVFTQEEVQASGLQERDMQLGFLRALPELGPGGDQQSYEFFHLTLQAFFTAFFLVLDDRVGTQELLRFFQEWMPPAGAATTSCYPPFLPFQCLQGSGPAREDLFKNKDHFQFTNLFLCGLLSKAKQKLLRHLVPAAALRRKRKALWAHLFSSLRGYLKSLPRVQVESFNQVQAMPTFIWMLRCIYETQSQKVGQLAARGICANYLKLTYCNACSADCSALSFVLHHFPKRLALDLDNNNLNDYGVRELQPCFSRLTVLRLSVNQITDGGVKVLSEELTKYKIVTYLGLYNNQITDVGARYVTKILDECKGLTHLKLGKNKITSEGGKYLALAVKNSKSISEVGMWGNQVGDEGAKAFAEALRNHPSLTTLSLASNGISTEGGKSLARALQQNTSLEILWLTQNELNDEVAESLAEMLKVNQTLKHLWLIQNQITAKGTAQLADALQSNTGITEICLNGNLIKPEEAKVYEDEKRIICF

Nucleotide-binding oligomerization domain-containing protein 2, sequence (Q9HC29 whole entry, the tested form may be a part): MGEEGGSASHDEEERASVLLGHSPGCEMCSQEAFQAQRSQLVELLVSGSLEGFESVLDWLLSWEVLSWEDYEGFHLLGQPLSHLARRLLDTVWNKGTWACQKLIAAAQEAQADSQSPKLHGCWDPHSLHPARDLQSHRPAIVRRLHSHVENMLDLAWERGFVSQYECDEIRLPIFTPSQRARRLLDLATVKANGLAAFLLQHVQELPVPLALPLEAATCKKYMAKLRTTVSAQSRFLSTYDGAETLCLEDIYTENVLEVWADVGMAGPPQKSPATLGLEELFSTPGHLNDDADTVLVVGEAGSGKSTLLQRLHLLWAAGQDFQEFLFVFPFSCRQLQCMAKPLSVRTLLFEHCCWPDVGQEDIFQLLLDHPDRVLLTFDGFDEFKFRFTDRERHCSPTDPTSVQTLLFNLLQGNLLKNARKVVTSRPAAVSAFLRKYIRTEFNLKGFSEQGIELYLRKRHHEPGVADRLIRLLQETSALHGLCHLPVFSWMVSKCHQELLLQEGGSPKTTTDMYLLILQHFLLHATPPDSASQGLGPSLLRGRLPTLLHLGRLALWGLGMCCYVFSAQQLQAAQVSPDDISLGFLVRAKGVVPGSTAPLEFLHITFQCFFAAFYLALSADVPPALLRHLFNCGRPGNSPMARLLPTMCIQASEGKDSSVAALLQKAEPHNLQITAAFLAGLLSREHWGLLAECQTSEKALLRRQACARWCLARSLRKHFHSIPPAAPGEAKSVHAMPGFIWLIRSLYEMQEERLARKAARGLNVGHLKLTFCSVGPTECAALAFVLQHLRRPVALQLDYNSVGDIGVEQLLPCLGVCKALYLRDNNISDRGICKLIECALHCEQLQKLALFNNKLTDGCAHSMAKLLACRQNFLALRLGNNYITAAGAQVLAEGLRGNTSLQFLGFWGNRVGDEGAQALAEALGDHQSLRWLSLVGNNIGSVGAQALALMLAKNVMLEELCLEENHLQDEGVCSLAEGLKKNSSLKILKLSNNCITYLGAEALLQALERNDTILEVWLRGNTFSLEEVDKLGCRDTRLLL

| SMILES | IC50 [1] | IC50 [2] |
| --- | --- | --- |
| Cc1ccc(S(=O)(=O)n2c(N)nc3ccccc32)cc1 | > 20 µM |  |
| C/C=C/Cn1c(SCCCc2ccccc2)nc2c1c(=O)[nH]c(=O)n2C | 12.7 µM |  |
| O=C(Cn1c(CCNC(=O)c2ccccc2)nc2ccccc21)Nc1ccc2c(c1)CCC2 |  | 3300 nM |
| O=C(Cn1c(CCNC(=O)c2ccccc2)nc2cc(Cl)ccc21)Nc1ccc2c(c1)CCC2 |  | 1300 nM |
| O=C(Cn1c(CCNC(=O)c2ccc3ccccc3c2)nc2ccccc21)Nc1ccc2c(c1)CCC2 |  | 3400 nM |
| CN(CCc1nc2ccccc2n1CC(=O)Nc1ccc2c(c1)CCC2)C(=O)c1ccccc1 |  | 400 nM |
| CN(CCc1nc2ccccc2n1CC(=O)Nc1ccc2c(c1)CCC2)C(=O)c1ccc2ccccc2c1 |  | 200 nM |

More lines, now with the values ahead:

| IC50 [1] | IC50 [2] | SMILES |
| --- | --- | --- |
| > 20 µM |  | CCCCCn1c(SCCc2ccccc2)nc2c1c(=O)[nH]c(=O)n2C |
|  | 800 nM | CC(C)c1cccc(NC(=O)Cn2c(CCNC(=O)c3ccccc3)nc3ccccc32)c1 |
|  | 1600 nM | O=C(Cn1c(CCNC(=O)c2ccccc2)nc2ccccc21)Nc1ccc2ccccc2c1 |
